The numbers were not newly measured in patent US8338383B1, “Use of immunomodulators for the treatment of cancer” (priority 2012, dated 2012), which cites them from elsewhere.

This data set has as its system patients with advanced pancreatic cancer. To be noted: survival from study enrollment to death from any cause.

Turning to `Nc1ccn([C@@H]2O[C@H](CO)[C@@H](O)C2(F)F)c(=O)n1` [gemcitabine, Gemcitabine], the “increased median survival versus 5-FU” value is reported as 1.5 months and the “median Overall Survival” value is reported as 5.7 months.
Turning to `O=c1[nH]cc(F)c(=O)[nH]1` [5-FU, 5-fluorouracil], the “median Overall Survival” value was 4.2 months.
